Experimental findings from article PMC8111447 (Frontiers in Pharmacology, 2021) are described below.

Holding throughout (assay): Kinase panel (Eurofins)
Common to all, as to format: biochemical
Common to all, as to settings: n = 2; for inhibition at 1 µM: at 1 μmol/L; for IC50: read-out: IC50 kinase inhibition

The target of one assay is T1, Mnk2(h) (Homo sapiens, UniProt Q9HBH9).
T1 construct: purchased Eurofins
The source says: (§1) These receptors have a methionine gatekeeper in their kinase domains, and are related to hyperglycemia in other clinical trials of EGFR TKI, such as Co-1686.

Another assay deals with T2, Met(h) (Homo sapiens, UniProt P08581).
T2 construct: purchased Eurofins
T2 sequence (P08581 25-1390): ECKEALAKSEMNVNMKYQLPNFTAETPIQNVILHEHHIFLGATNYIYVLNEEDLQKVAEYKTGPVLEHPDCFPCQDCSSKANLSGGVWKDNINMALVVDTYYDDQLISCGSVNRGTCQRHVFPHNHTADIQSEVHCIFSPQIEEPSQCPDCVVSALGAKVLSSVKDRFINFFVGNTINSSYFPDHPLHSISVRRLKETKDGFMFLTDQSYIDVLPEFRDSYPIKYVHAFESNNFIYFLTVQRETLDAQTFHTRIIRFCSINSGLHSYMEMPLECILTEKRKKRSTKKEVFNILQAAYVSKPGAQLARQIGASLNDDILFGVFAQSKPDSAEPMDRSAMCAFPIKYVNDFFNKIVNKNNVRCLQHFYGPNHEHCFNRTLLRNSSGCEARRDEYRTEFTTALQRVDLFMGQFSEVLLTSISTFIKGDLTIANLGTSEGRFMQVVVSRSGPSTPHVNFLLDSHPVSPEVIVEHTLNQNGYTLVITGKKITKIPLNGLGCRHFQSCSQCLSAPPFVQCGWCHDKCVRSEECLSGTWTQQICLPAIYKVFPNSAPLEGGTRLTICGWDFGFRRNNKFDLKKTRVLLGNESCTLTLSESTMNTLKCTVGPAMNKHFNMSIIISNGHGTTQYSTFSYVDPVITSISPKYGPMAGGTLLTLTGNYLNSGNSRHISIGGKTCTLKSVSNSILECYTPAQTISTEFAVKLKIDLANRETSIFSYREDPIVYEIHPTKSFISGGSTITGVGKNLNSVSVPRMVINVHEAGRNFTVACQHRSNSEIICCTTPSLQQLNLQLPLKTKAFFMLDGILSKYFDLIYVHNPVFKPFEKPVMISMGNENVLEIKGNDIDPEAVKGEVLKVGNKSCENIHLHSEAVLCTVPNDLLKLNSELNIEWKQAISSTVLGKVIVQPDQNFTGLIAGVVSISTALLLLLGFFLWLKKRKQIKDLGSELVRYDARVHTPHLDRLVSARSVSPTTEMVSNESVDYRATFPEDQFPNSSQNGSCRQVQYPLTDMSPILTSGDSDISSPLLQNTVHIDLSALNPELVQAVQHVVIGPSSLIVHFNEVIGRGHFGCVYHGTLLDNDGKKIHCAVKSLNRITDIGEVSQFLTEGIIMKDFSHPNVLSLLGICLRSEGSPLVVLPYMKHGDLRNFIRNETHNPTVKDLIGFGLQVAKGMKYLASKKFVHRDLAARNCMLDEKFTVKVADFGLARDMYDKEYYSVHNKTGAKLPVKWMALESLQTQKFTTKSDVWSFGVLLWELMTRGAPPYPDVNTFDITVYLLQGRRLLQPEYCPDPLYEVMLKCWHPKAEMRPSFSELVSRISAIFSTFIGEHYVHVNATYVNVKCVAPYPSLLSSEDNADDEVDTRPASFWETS
Description: as §1

For a further assay, the target named is T3, IR(h), activated (Homo sapiens, UniProt P06213).
T3 construct: purchased Eurofins
T3 sequence (P06213 28-1382): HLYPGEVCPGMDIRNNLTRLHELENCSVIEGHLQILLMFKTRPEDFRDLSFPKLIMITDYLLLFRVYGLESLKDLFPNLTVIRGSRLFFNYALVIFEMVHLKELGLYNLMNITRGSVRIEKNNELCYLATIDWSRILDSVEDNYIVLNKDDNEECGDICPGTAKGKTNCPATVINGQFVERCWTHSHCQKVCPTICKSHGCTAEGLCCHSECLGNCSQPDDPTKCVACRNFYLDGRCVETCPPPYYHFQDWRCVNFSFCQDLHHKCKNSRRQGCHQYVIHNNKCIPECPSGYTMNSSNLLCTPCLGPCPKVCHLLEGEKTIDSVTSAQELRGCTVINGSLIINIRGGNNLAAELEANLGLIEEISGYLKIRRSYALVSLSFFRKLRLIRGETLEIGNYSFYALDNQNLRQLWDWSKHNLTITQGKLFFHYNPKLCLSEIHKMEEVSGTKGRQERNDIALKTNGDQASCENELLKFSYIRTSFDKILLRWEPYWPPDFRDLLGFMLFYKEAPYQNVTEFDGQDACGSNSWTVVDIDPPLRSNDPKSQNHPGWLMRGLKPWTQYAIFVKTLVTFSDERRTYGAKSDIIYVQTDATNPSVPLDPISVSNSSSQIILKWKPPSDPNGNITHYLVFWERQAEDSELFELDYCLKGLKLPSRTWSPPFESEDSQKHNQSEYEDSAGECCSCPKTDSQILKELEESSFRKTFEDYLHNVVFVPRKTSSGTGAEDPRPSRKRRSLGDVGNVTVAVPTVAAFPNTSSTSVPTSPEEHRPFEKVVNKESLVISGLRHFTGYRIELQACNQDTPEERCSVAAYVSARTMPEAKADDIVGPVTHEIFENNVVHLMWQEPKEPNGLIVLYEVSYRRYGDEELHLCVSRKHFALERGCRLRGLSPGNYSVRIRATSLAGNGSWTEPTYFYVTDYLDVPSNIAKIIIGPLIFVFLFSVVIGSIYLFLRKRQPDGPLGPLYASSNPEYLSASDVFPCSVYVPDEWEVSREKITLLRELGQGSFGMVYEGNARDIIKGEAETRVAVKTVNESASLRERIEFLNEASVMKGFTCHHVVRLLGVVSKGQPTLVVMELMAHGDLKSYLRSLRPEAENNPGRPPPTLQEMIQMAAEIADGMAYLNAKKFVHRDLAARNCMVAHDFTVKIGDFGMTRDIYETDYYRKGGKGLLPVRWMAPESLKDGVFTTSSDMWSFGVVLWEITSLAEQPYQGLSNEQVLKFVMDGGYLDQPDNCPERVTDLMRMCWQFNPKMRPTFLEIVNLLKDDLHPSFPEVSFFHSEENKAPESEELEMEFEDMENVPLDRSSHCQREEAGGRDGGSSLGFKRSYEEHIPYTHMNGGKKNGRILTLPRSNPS
Description: as §1

Another assay addresses T4, JAK3(h) (Homo sapiens, UniProt P52333).
T4 construct: purchased Eurofins
T4 sequence (P52333 1-1124): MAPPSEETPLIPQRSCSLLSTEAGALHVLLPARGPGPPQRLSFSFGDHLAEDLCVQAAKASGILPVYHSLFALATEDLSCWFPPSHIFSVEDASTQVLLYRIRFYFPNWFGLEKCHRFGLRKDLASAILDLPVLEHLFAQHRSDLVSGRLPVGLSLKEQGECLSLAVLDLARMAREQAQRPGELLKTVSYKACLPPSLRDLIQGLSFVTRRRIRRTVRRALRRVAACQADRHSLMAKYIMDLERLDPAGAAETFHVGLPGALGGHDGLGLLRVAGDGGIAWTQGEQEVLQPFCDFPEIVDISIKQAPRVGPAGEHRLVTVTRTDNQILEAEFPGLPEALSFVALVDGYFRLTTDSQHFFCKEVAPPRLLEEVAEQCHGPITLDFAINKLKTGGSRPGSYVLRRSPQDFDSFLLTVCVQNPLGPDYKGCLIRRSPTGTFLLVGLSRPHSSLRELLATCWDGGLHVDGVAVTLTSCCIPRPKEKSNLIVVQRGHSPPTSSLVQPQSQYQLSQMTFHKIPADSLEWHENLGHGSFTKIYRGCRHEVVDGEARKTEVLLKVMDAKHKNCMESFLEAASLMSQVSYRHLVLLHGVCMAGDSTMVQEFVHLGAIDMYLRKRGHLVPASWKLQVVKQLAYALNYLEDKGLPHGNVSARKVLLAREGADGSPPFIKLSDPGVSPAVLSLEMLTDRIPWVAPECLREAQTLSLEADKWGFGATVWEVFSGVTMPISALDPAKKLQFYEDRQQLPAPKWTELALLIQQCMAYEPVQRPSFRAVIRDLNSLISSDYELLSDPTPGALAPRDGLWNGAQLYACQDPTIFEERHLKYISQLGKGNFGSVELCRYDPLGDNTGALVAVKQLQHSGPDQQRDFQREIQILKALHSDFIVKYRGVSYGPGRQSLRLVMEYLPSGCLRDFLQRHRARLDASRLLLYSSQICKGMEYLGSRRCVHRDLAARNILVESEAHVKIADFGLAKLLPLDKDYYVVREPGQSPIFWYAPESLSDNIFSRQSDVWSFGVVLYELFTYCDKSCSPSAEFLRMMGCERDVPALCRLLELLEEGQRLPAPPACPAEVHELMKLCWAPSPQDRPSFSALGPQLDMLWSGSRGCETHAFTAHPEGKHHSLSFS
Description: as §1

For another assay, the target named is T5, TSSK1(h) (Homo sapiens, UniProt Q9BXA7).
T5 construct: purchased Eurofins
T5 sequence (Q9BXA7 1-367): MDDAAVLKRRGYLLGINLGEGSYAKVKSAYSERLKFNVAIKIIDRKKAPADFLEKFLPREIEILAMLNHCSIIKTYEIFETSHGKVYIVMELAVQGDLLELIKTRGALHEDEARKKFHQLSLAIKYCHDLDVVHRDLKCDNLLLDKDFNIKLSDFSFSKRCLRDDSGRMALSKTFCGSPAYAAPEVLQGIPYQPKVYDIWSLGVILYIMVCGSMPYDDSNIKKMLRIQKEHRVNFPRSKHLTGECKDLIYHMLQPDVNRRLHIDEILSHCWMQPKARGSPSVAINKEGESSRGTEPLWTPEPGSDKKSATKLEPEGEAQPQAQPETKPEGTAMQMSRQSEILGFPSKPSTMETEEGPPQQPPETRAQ
Description: as §1

The target of the next assay is T6, Ros(h) (Homo sapiens, UniProt P08922).
T6 construct: purchased Eurofins
Description: as §1

In another assay the target is T7, Flt3 (D835Y) (h) (Homo sapiens, UniProt P36888, D835Y).
T7 construct: purchased Eurofins
T7 sequence (P36888 27-993 D835Y): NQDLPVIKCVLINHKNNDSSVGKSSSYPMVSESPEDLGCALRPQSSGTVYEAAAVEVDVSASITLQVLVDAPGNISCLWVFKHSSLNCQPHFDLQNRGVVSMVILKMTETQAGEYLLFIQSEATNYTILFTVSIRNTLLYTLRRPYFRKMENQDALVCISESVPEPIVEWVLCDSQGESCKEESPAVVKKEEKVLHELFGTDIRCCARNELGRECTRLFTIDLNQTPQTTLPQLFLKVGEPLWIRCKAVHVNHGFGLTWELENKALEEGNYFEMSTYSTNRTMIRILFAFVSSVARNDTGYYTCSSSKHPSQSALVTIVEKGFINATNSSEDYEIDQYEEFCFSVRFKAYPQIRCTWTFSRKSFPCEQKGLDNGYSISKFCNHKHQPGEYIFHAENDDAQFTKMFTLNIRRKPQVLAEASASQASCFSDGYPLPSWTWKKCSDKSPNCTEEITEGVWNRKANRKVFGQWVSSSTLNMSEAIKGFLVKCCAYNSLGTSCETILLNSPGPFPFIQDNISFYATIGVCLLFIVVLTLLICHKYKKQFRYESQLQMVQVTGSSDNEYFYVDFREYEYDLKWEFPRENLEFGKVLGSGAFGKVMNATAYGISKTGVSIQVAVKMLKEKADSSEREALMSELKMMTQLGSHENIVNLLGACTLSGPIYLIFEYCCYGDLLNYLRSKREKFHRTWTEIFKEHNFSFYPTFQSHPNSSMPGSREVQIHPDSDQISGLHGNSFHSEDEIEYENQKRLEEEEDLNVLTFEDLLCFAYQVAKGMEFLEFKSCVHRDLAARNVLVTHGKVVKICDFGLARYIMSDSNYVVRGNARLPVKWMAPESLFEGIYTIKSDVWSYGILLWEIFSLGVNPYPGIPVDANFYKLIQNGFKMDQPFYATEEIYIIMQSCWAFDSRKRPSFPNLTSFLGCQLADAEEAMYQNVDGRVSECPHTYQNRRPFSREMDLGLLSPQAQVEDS
Description: as §1

T1 sequence (Q9HBH9 whole entry): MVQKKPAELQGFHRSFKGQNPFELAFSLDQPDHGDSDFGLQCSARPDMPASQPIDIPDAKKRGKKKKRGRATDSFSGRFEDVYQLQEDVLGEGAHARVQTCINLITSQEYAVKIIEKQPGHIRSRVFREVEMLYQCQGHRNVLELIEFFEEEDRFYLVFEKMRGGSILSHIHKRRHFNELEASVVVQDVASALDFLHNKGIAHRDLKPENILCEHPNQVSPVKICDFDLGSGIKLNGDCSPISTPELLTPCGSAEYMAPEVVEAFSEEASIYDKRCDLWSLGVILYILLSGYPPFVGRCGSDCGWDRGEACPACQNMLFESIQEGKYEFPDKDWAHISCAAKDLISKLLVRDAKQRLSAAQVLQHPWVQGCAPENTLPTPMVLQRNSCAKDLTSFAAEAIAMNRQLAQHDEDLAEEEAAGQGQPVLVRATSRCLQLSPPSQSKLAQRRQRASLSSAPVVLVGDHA

Take `C=CC(=O)Nc1cc(Nc2nccc(-c3c4n(c5ccccc35)CCCC4)n2)c(OC)cc1N(C)CCNC` [Imp3]: the inhibition at 1 µM on Mnk2(h) amounted to 69%; at Met(h), 73%; at IR(h), activated it was 74%; at JAK3(h) it was 55%; against TSSK1(h) it was 98%; against Ros(h), 98%. On Flt3 (D835Y) (h), this compound returned an inhibition at 1 µM of 99%. Further, the 50% inhibitory concentration (IC50) on Mnk2(h) came to 22 nM; at Met(h), 486 nM; at IR(h), activated, 321 nM; at JAK3(h), 1370 nM; at TSSK1(h), 73 nM; at Ros(h), 47 nM. The half-maximal inhibitory concentration (IC50) on Flt3 (D835Y) (h) is 41 nM.

In the case of `C=CC(=O)Nc1cc(Nc2nccc(-c3c4n(c5ccccc35)CCCC4)n2)c(OC)cc1N(C)CCN(C)C` [SH-1028], the inhibition at 1 µM against Mnk2(h) is 63%; on Met(h), 46%; at IR(h), activated it was 58%; on JAK3(h), 61%; at TSSK1(h), 84%; against Ros(h) it was 96%. Besides, the inhibition at 1 µM against Flt3 (D835Y) (h) came out at 86%. Also, the concentration for half-maximal inhibition (IC50) was 23 nM at Mnk2(h); 737 nM at Met(h); 241 nM at IR(h), activated; 1750 nM on JAK3(h); 104 nM at TSSK1(h); 50 nM at Ros(h). Also, the IC50 at Flt3 (D835Y) (h) came to 78 nM.
